Data published in the CheMixHub viscosity set.
Values joined by “and” are separate entries in the source; they are usually repeats but may differ in a detail not shown here. Identical values can stand only once.

Assay: xn = mol fraction of the nth substance listed

CCCc1ccccc1 + C1COCCO1
303.15 K, 101.3 kPa
Details	viscosity [mPa·s]
x2 = 0.1061	0.7763
x2 = 0.1984	0.8007
x2 = 0.2968	0.8298
x2 = 0.399	0.8589
x2 = 0.4945	0.8922
x2 = 0.5985	0.9278
x2 = 0.7003	0.9648
x2 = 0.8026	1.005
x2 = 0.9025	1.045

c1ccc2ccccc2c1 + O=[N+]([O-])c1ccccc1
viscosity [mPa·s], 101 kPa
Details	303.15 K	308.15 K	313.15 K	318.15 K	323.15 K
x1 = 0.2952	1.646	1.544	1.44	1.329	1.231
x1 = 0.4191	–	1.578	1.45	1.346	1.252

COc1ccccc1 + CC1COC(=O)O1
viscosity [mPa·s], 101.33 kPa
Details	x2 = 0.0794	x2 = 0.1323	x2 = 0.2487	x2 = 0.3578	x2 = 0.4971	x2 = 0.5795	x2 = 0.6669	x2 = 0.7278	x2 = 0.835	x2 = 0.9009
293.15 K	1.142	1.199	1.316	1.449	1.64	1.773	1.917	2.031	2.246	2.406
303.15 K	0.971	1.013	1.101	1.212	1.372	1.479	1.591	1.682	1.851	1.978
313.15 K	0.849	0.889	0.972	1.066	1.177	1.26	1.347	1.423	1.569	1.671

C1CCOC1 + CCOC(C)=O
101.32 kPa
Details	viscosity [mPa·s]
303.15 K, x2 = 0.0431	0.443
303.15 K, x2 = 0.0837	0.437
303.15 K, x2 = 0.128	0.434
303.15 K, x2 = 0.1718	0.431
303.15 K, x2 = 0.2625	0.425
303.15 K, x2 = 0.3504	0.421
303.15 K, x2 = 0.4521	0.416
303.15 K, x2 = 0.6544	0.41
303.15 K, x2 = 0.8229	0.407
303.15 K, x2 = 0.8817	0.407
303.15 K, x2 = 0.9396	0.406
313.15 K, x2 = 0.2044	0.384
313.15 K, x2 = 0.4059	0.375
313.15 K, x2 = 0.5072	0.373
313.15 K, x2 = 0.6002	0.37
313.15 K, x2 = 0.7996	0.369

c1ccc2ccccc2c1 + CO
298.15 K, 101 kPa
Details	viscosity
x1 = 0.006	0.5509 mPa·s
x1 = 0.01	0.5564 mPa·s and 0.5619 mPa·s
x1 = 0.03	0.5893 mPa·s

C1CCOC1 + O=C1CCCO1
viscosity [mPa·s]
Details	293.15 K	298.15 K	303.15 K	308.15 K	313.15 K	318.15 K	323.15 K
101 kPa, x1 = 0.1009	1.614	1.496	1.39	1.297	1.212	1.136	1.068
101 kPa, x1 = 0.2003	1.388	1.292	1.206	1.128	1.058	0.995	0.938
101 kPa, x1 = 0.3008	1.203	1.123	1.052	0.987	0.93	0.877	0.83
101 kPa, x1 = 0.4004	1.046	0.98	0.92	0.866	0.818	0.773	0.733
101 kPa, x1 = 0.4916	0.936	0.878	0.825	0.778	0.735	0.696	0.66
101 kPa, x1 = 0.5991	0.809	0.761	0.717	0.677	0.641	0.608	0.578
101 kPa, x1 = 0.6997	0.706	0.667	0.631	0.598	0.567	0.537	0.511
101 kPa, x1 = 0.8	0.62	0.589	0.56	0.531	0.506	0.482	0.461
101 kPa, x1 = 0.8997	0.567	0.538	0.511	0.485	0.463	0.441	0.415
101.33 kPa, x1 = 0.1077	1.583	1.462	–	–	–	–	–
101.33 kPa, x1 = 0.3124	1.172	1.089	–	–	–	–	–
101.33 kPa, x1 = 0.701	0.682	0.641	–	–	–	–	–
101.33 kPa, x1 = 0.8954	0.539	0.51	–	–	–	–	–

CCC(N)(CO)CO + O
viscosity [mPa·s], 101.33 kPa
Details	x1 = 0.0364	x1 = 0.0916	x1 = 0.185	x1 = 0.261	x1 = 0.377
303.15 K	1.765	4.993	21.96	56.54	199.2
313.15 K	1.356	3.435	12.89	30.13	85.62
323.15 K	1.053	2.504	8.22	17.36	44.4

CCCCCCCCCCCCCCCCC + CCCCCCCCCCO
100 kPa, x1 = 0.076
Details	viscosity [mPa·s]
298.2 K	10.21
308.2 K	6.94
318.2 K	4.87
